From ChEMBL document CHEMBL2396560, “Discovery of (R)-4-cyclopropyl-7,8-difluoro-5-(4-(trifluoromethyl)phenylsulfonyl)-4,5-dihydro-1H-pyrazolo[4,3-c]quinoline (ELND006) and (R)-4-cyclopropyl-8-fluoro-5-(6-(trifluoromethyl)pyridin-3-ylsulfonyl)-4,5-dihydro-2H-pyrazolo[4,3-c]quinoline (ELND007): metabolically stable γ-secretase …” (J Med Chem, 2013)
Converted amounts (≈) assume the structure as drawn.

How the values were obtained:
Mus musculus [1] = assay: Toxicity in FVB mouse assessed as effect on Hes-1 mRNA level in thymus at 10 mg/kg, po administered as single dose measured at 3 hrs; type: organism-based; design: dose 10 mg/kg, route oral; settings: in vivo
CHO [2] = assay: Inhibition of gamma-secretase in CHO cells assessed expressing NotchdeltaE assessed as inhibition of notch cleavage after overnight incubation by luciferase reporter gene assay; type: cell-based; settings: Cricetulus griseus
[3] = Drug uptake in FVB mouse brain at 30 mg/kg, po at 3 hrs; type: ADME, organism-based; design: dose 30 mg/kg, route oral; settings: read-out: Drug uptake
[4] = Plasma concentration in FVB mouse at 30 mg/kg, po at 3 hrs; type: ADME, organism-based; design: dose 30 mg/kg, route oral
[5] = Systemic clearance in rat; type: ADME, organism-based; settings: in vivo
Rattus norvegicus [6] = organism: Rattus norvegicus; assay: Systemic clearance in rat relative to hepatic blood flow; type: ADME, organism-based, Liver; settings: in vivo
[7] = molecular target: Gamma-secretase (Homo sapiens) (UniProt Q96BI3+Q9NZ42+Q8WW43+P49768+Q92542+P49810); assay: Selctivity ratio of IC50 for partially purified human gamma-secretase-mediated cleavage of notch fusion protein to IC50 for partially purified human gamma-secretase-mediated cleavage of MBP-APPc125Sw fusion protein; type: protein-complex assay
Brain [8] = assay: AUC (0 to 3 hrs) in FVB mouse brain at 3 mg/kg, po; type: ADME, organism-based; design: time < 3 hr, dose 3 mg/kg, route oral; settings: in vivo
Plasma [9] = assay: AUC (0 to 3 hrs) in FVB mouse plasma at 3 mg/kg, po; type: ADME, organism-based; design: time < 3 hr, dose 3 mg/kg, route oral; settings: in vivo
Mus musculus [10] = assay: Toxicity in FVB mouse assessed as effect on Hes-1 mRNA level in thymus at 3 mg/kg, po administered as single dose measured at 3 hrs; type: organism-based; design: dose 3 mg/kg, route oral; settings: in vivo
Liver [11] = assay: Glucuronidation metabolism in mouse liver microsomes assessed as compound remaining; type: ADME, Microsome
Liver microsomes [12] = assay: Oxidative metabolism in rat liver microsomes assessed as compound remaining; type: ADME, Microsome
Plasma [13] = assay: AUC (0 to 3 hrs) in FVB mouse plasma at 10 mg/kg, po; type: ADME, organism-based; design: time < 3 hr, dose 10 mg/kg, route oral; settings: in vivo
[14] = Plasma concentration in FVB mouse at 1 mg/kg, po at 3 hrs; type: ADME, organism-based; design: dose 1 mg/kg, route oral
Brain [15] = assay: AUC (0 to 3 hrs) in FVB mouse brain at 1 mg/kg, po; type: ADME, organism-based; design: time < 3 hr, dose 1 mg/kg, route oral; settings: in vivo
Rattus norvegicus [16] = assay: Hepatic toxicity in rat administered for 6 months as repeated-dosing; type: organism-based; settings: in vivo
Gamma-secretase [17] = assay: Inhibition of partially purified human gamma-secretase-mediated cleavage of MBP-APPc125Sw fusion protein measured after overnight incubation by ELISA; type: protein-complex assay
Homo sapiens [18] = assay: Hepatic toxicity in po dosed healthy human administered as gelatin capsule; type: organism-based; settings: in vivo
Cynomolgus monkey = assay: Hepatic toxicity in cynomolgus monkey administered for 1 year as repeated-dosing; type: organism-based, Macaca fascicularis; settings: in vivo
Brain [19] = assay: AUC (0 to 3 hrs) in FVB mouse brain at 10 mg/kg, po; type: ADME, organism-based; design: time < 3 hr, dose 10 mg/kg, route oral; settings: in vivo
CHO [20] = assay: Selctivity ratio of ED50 for gamma-secretase in CHO cells assessed expressing NotchdeltaE assessed as inhibition of notch cleavage to ED50 for gamma-secretase in CHO cells assessed expressing APPSw assessed as inhibition of amyloid beta(1 to x) secretion; type: cell-based; settings: Cricetulus griseus
Mus musculus [21] = assay: Selectivity ratio of EC25 for Reduction in amyloid beta (x to 40) brain to EC25 for change in Hes-1 mRNA level in thymus in po dosed FVB mouse
Liver [22] = assay: Oxidative metabolism in mouse liver microsomes assessed as compound remaining; type: ADME, Microsome
Mus musculus [23] = assay: Reduction in amyloid beta (x to 40) in po dosed FVB mouse brain administered as single dose measured at 3 hrs; type: functional
Plasma [24] = assay: AUC (0 to 3 hrs) in FVB mouse plasma at 1 mg/kg, po; type: ADME, organism-based; design: time < 3 hr, dose 1 mg/kg, route oral; settings: in vivo
Mus musculus [25] = assay: Reduction in amyloid beta (x to 40) in FVB mouse cortex at 3 mg/kg, po administered as single dose measured at 3 hrs; type: functional; design: scale not given: the % may be the effect or the level left
[26] = Octanol-water partition co-efficient, log P of the compound by shake-flask method; type: physicochemical
CHO [27] = assay: Inhibition of gamma-secretase in CHO cells assessed expressing APPSw assessed as inhibition of amyloid beta(1 to x) secretion after overnight incubation by ELISA; type: cell-based; settings: Cricetulus griseus
Mus musculus [28] = assay: Toxicity in FVB mouse assessed as thymus atrophy compound administered orally bid for 7 days; type: organism-based; settings: in vivo, po, 168 h
[29] = Aqueous solubility of the compound; type: physicochemical; settings: buffer
Liver [30] = assay: Glucuronidation metabolism in dog liver microsomes assessed as compound remaining; type: ADME, Canis lupus familiaris, Microsome
Mus musculus [31] = assay: Reduction in amyloid beta (x to 40) in FVB mouse cortex at 30 mg/kg, po administered as single dose measured at 6 hrs post administration; type: functional; design: scale not given: the % may be the effect or the level left
[32] = Drug uptake in FVB mouse brain at 10 mg/kg, po at 3 hrs; type: ADME, organism-based; design: dose 10 mg/kg, route oral; settings: read-out: Drug uptake
Gamma-secretase [33] = assay: Inhibition of partially purified human gamma-secretase-mediated cleavage of notch fusion protein measured after overnight incubation by ELISA; type: protein-complex assay
Mus musculus [34] = assay: Reduction in amyloid beta (x to 40) in FVB mouse cortex at 30 mg/kg, po administered as single dose measured at 3 hrs; type: functional; design: scale not given: the % may be the effect or the level left
Liver microsomes [35] = assay: Glucuronidation metabolism in rat liver microsomes assessed as compound remaining; type: ADME, Microsome
Mus musculus [36] = assay: Toxicity in FVB mouse assessed as effect on Hes-1 mRNA level in thymus at 30 mg/kg, po administered as single dose measured at 3 hrs; type: organism-based; design: dose 30 mg/kg, route oral; settings: in vivo
Mus musculus [37] = assay: Reduction in amyloid beta (x to 40) in FVB mouse cortex at 10 mg/kg, po administered as single dose measured at 3 hrs; type: functional; design: scale not given: the % may be the effect or the level left
Liver [38] = assay: Oxidative metabolism in dog liver microsomes assessed as compound remaining; type: ADME, Canis lupus familiaris, Microsome
Homo sapiens [39] = assay: Reduction in amyloid beta in CSF of po dosed healthy human administered as gelatin capsule measured after 5 hrs post administration; type: functional; design: scale not given: the % may be the effect or the level left
Mus musculus [40] = assay: Toxicity in FVB mouse assessed as goblet cell hyperplasia in intestine compound administered orally bid for 7 days; type: organism-based; settings: in vivo, po, 168 h
Liver microsomes [41] = assay: Oxidative metabolism in human liver microsomes assessed as compound remaining; type: ADME, Microsome
Liver microsomes [42] = assay: Glucuronidation metabolism in human liver microsomes assessed as compound remaining; type: ADME, Microsome
Mus musculus [43] = assay: Reduction in amyloid beta (x to 40) in FVB mouse cortex at 1 mg/kg, po administered as single dose measured at 3 hrs; type: functional; design: scale not given: the % may be the effect or the level left
[44] = Drug uptake in FVB mouse brain at 3 mg/kg, po at 3 hrs; type: ADME, organism-based; design: dose 3 mg/kg, route oral; settings: read-out: Drug uptake
[45] = Plasma concentration in FVB mouse at 3 mg/kg, po at 3 hrs; type: ADME, organism-based; design: dose 3 mg/kg, route oral
[46] = Plasma concentration in FVB mouse at 10 mg/kg, po at 3 hrs; type: ADME, organism-based; design: dose 10 mg/kg, route oral
[47] = Drug uptake in FVB mouse brain at 1 mg/kg, po at 3 hrs; type: ADME, organism-based; design: dose 1 mg/kg, route oral; settings: read-out: Drug uptake
Mus musculus [48] = assay: Toxicity in FVB mouse assessed as effect on Hes-1 mRNA level in thymus at 1 mg/kg, po administered as single dose measured at 3 hrs; type: organism-based; design: dose 1 mg/kg, route oral; settings: in vivo
[49] = Oral bioavailability in rat; type: ADME, organism-based; settings: in vivo
Brain [50] = assay: AUC (0 to 3 hrs) in FVB mouse brain at 30 mg/kg, po; type: ADME, organism-based; design: time < 3 hr, dose 30 mg/kg, route oral; settings: in vivo
[51] = Passive permebility in wild-type MDCK cells; type: ADME, cell-based, Canis lupus familiaris; settings: dog, read-out: permeability
Plasma [52] = assay: AUC (0 to 3 hrs) in FVB mouse plasma at 30 mg/kg, po; type: ADME, organism-based; design: time < 3 hr, dose 30 mg/kg, route oral; settings: in vivo

SMILES: O=S(=O)(c1ccc(C(F)(F)F)cc1)N1c2cc(F)c(F)cc2-c2n[nH]cc2[C@H]1C1CC1
- Activity (Mus musculus [1]): -14%
- ED50 (CHO [2]): 86 nM
- concentration at 3 h [3]: 7200 nM
- concentration at 3 h [4]: 3000 nM
- clearance [5]: 22 mL/min/kg
- CLH (Rattus norvegicus [6]): 40%
- Ratio IC50 [7]: 19
- AUC (Brain [8]): 2.1 µM
- AUC (Plasma [9]): 0.68 µM
- Activity (Mus musculus [10]): -17%
- Stability (Liver [11]): 88%
- Stability (Liver microsomes [12]): 66%
- AUC (Plasma [13]): 0.68 µM
- concentration at 3 h [14]: 31 nM
- AUC (Brain [15]): 0.64 µM
- Activity (Rattus norvegicus [16]): Non-toxic
- IC50 (Gamma-secretase [17]): 0.34 nM
- Activity (Homo sapiens [18]): Toxic
- Activity (Cynomolgus monkey): Non-toxic
- AUC (Brain [19]): 7 µM
- Ratio ED50 (CHO [20]): 78
- Selectivity ratio (Mus musculus [21]): 57
- Stability (Liver [22]): 72%
- EC25(unbound) (Mus musculus [23]): 0.034 nM
- AUC (Plasma [24]): 0.19 µM
- Activity (Mus musculus [25]): 48%
- logP [26]: 3.91
- ED50 (CHO [27]): 1.1 nM
- Activity (Mus musculus [28]): Non-toxic
- solubility [29]: 3 µg/mL (≈ 6.59 µM)
- Stability (Liver [30]): 90%
- Activity (Mus musculus [31]): 82%
- concentration at 3 h [32]: 2100 nM
- IC50 (Gamma-secretase [33]): 6.6 nM
- Activity (Mus musculus [34]): 64%
- Stability (Liver microsomes [35]): 90%
- Activity (Mus musculus [36]): -25%
- Activity (Mus musculus [37]): 61%
- Stability (Liver [38]): 75%
- Activity (Homo sapiens [39]): 31%
- Activity (Mus musculus [40]): Non-toxic
- Stability (Liver microsomes [41]): 80%
- Stability (Liver microsomes [42]): 90%
- Activity (Mus musculus [43]): 32%
- concentration at 3 h [44]: 520 nM
- concentration at 3 h [45]: 190 nM
- concentration at 3 h [46]: 900 nM
- concentration at 3 h [47]: 120 nM

SMILES: O=S(=O)(c1ccc(C(F)(F)F)nc1)N1c2ccc(F)cc2-c2n[nH]cc2[C@H]1C1CC1
- Activity (Mus musculus [1]): -44%
- ED50 (CHO [2]): 20 nM
- concentration at 3 h [3]: 2600 nM
- concentration at 3 h [4]: 3500 nM
- clearance [5]: 23 mL/min/kg
- CLH (Rattus norvegicus [6]): 42%
- Activity (Mus musculus [48]): 11%
- Ratio IC50 [7]: 17
- AUC (Brain [8]): 0.92 µM
- AUC (Plasma [9]): 0.57 µM
- Activity (Mus musculus [10]): -21%
- Stability (Liver [11]): 90%
- Stability (Liver microsomes [12]): 81%
- AUC (Plasma [13]): 4.7 µM
- concentration at 3 h [14]: 14 nM
- AUC (Brain [15]): 0.24 µM
- bioavailability [49]: 92%
- IC50 (Gamma-secretase [17]): 0.1 nM
- Activity (Homo sapiens [18]): Toxic
- AUC (Brain [19]): 4.1 µM
- Ratio ED50 (CHO [20]): 71
- Stability (Liver [22]): 80%
- AUC (Plasma [24]): 0.14 µM
- Activity (Mus musculus [25]): 56%
- logP [26]: 3.65
- ED50 (CHO [27]): 0.28 nM
- solubility [29]: 100 µg/mL (≈ 228 µM)
- Stability (Liver [30]): 87%
- AUC (Brain [50]): 11 µM
- concentration at 3 h [32]: 1000 nM
- IC50 (Gamma-secretase [33]): 1.7 nM
- Activity (Mus musculus [34]): 62%
- Stability (Liver microsomes [35]): 91%
- Activity (Mus musculus [36]): -46%
- Activity (Mus musculus [37]): 61%
- Stability (Liver [38]): 80%
- Papp [51]: 8.8 ×10⁻⁶ cm/s
- Stability (Liver microsomes [41]): 85%
- Stability (Liver microsomes [42]): 91%
- Activity (Mus musculus [43]): 34%
- concentration at 3 h [44]: 220 nM
- concentration at 3 h [45]: 79 nM
- AUC (Plasma [52]): 12 µM
- concentration at 3 h [46]: 1200 nM
- concentration at 3 h [47]: 45 nM
